System: PDC KRAS tumor spheroids with HUVEC/MSC, viability
Assay: Anticancer human tumor 349418-098-R-PDC patient-derived lung adenocarcinoma cell line growth inhibition [KRAS2]
Conditions: for IC50: curve of first compound; for viability, T/C: stronger effect = lower value
Method in brief: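 Combination screen of spheroid viability in tumor-cell co-cultures with endothelial (HUVEC) and mesenchymal stem cell stroma. Each agent was tested in half-log dilutions, topping at clinical Cmax or at 10 microM without a known Cmax.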
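Note: spheroids exposed to compounds for seven days before readout.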

Structure (SMILES): CCNC(=O)CC1N=C(c2ccc(Cl)cc2)c2cc(OC)ccc2-n2c(C)nnc21 (stereo not given) + CC1OCC2(CCN(c3cnc(Sc4ccnc(N)c4Cl)c(N)n3)CC2)C1N
- IC50 (second compound 0.1 µM): 112 nM
- IC50 (second compound 0.316 µM): 133 nM
- IC50 (second compound 1 µM): 148 nM
- IC50 (second compound 3.16 µM): 183 nM
- IC50 (second compound 10 µM): 196 nM
- viability, T/C (second compound 0.1 µM, first compound 0.0316 µM): 106%
- viability, T/C (second compound 0.1 µM, first compound 0.1 µM): 50.3%
- viability, T/C (second compound 0.1 µM, first compound 0.316 µM): 28.4%
- viability, T/C (second compound 0.1 µM, first compound 1 µM): 11.3%
- viability, T/C (second compound 0.1 µM, first compound 3.16 µM): 3.22%
- viability, T/C (second compound 0.1 µM, first compound 10 µM): 1.09%
- viability, T/C (second compound 0.316 µM, first compound 0.0316 µM): 103%
- viability, T/C (second compound 0.316 µM, first compound 0.1 µM): 58.8%
- viability, T/C (second compound 0.316 µM, first compound 0.316 µM): 23.6%
- viability, T/C (second compound 0.316 µM, first compound 1 µM): 10.1%
- viability, T/C (second compound 0.316 µM, first compound 3.16 µM): 2.91%
- viability, T/C (second compound 0.316 µM, first compound 10 µM): 1.3%
- viability, T/C (second compound 1 µM, first compound 0.0316 µM): 136%
- viability, T/C (second compound 1 µM, first compound 0.1 µM): 60.9%
- viability, T/C (second compound 1 µM, first compound 0.316 µM): 28.8%
- viability, T/C (second compound 1 µM, first compound 1 µM): 8.35%
- viability, T/C (second compound 1 µM, first compound 3.16 µM): 2.56%
- viability, T/C (second compound 1 µM, first compound 10 µM): 1.67%
- viability, T/C (second compound 3.16 µM, first compound 0.0316 µM): 103%
- viability, T/C (second compound 3.16 µM, first compound 0.1 µM): 73.9%
- viability, T/C (second compound 3.16 µM, first compound 0.316 µM): 27.6%
- viability, T/C (second compound 3.16 µM, first compound 1 µM): 10.3%
- viability, T/C (second compound 3.16 µM, first compound 3.16 µM): 2.56%
- viability, T/C (second compound 3.16 µM, first compound 10 µM): 1.16%
- viability, T/C (second compound 10 µM, first compound 0.0316 µM): 109%
- viability, T/C (second compound 10 µM, first compound 0.1 µM): 80%
- viability, T/C (second compound 10 µM, first compound 0.316 µM): 28.3%
- viability, T/C (second compound 10 µM, first compound 1 µM): 7.82%
- viability, T/C (second compound 10 µM, first compound 3.16 µM): 2.1%
- viability, T/C (second compound 10 µM, first compound 10 µM): 0.96%

From PubChem BioAssay AID1963866 (Molecular Pharmacology Branch, DTP, NCI, 2024)
